Measurements reported in patent US12605423B2, “Peptide inhibitors targeting methyltransfer mechanism of SARS-CoV-2” (United Arab Emirates University, priority 2021, dated 2026).
Entries after “also recorded” stand apart in the source; their conditions may differ.

Tests used:
IL-6 = type: cell-based; conditions: NCIH1792 (H1792) human lung cells, 10 μM peptide, versus PBS control

`CSCC[C@H](NC(=O)[C@H](Cc1ccccc1)NC(=O)CNC(=O)[C@H](CO)NC(=O)CNC(=O)[C@H](CCCNC(=N)N)NC(=O)[C@H](CCCNC(=N)N)NC(=O)[C@H](CCCNC(=N)N)NC(=O)[C@H](CCC(N)=O)NC(=O)[C@H](CCCNC(=N)N)NC(=O)[C@H](CCCNC(=N)N)NC(=O)[C@H](CCCCN)NC(=O)[C@H](CCCCN)NC(=O)[C@H](CCCNC(=N)N)NC(=O)CNC(=O)[C@H](Cc1ccc(O)cc1)NC(C)=O)C(=O)N[C@@H](CC(=O)O)C(=O)N[C@@H](CC(C)C)C(=O)N[C@@H](CCCCN)C(=O)NCC(=O)N[C@@H](CCCCN)C(=O)N[C@@H](Cc1ccc(O)cc1)C(N)=O` [Peptide P3, FMDLKGKY] was tested, and the “IL-6 induction” value (IL-6) was “not P2 nor P3; also recorded: does not stimulate IL-6”, the 90% Effective Concentration (EC90) (SARS-CoV-2) was 3.3 µM and the EC90 (SARS-CoV-2) was 3.3 µM.
